Consider 34 compounds from patent publication US20250154134A1, “COMPOUND AS FAK INHIBITOR AND USE THEREOF” (WIGEN BIOMEDICINE TECHNOLOGY (SHANGHAI) CO., LTD., priority 2022, published 2025).

Assay [1] has as its target FAK recombinant protein (Homo sapiens (Human), UniProt Q05397). Kind of assay: Inhibitory activity against FAK enzyme (HTRF, TK substrate). In kind it is biochemical. As for the experimental part: A compound serially diluted with DMSO was mixed with a FAK recombinant protein. After the mixture was left to stand at room temperature for 10 min, a biotin-labeled TK substrate (TK) and ATP were added. […] The inhibition percentage and IC50 of the compound were calculated compared to the DMSO control group.
(In general: Time-resolved FRET reads energy transfer from a long-lived donor to a nearby acceptor.)

The test system of assay [2] is PC3 cells. Briefly: PC3 cell proliferation, 3D activity assay (3D culture, 14 days). The class given is cell-based, human. Conditions: Homo sapiens, PC-3, 336 h, read-out: 3D inhibitory activity against PC3 cells IC50. As for the experimental part: (§1) 2D activity assay: 1200 PC3 cells were seeded in a 96-well plate. After overnight adherence culture, A compound serially diluted was added. […] The growth of the cells was evaluated, and the IC50 of the compound inhibiting cell growth was calculated. 3D activity assay: PC3 cells were seeded in a 96-well plate at 1200 cells/well, and 3D culture was performed. 14 days after a compound serially diluted was added, the growth of the cells was measured. The inhibition percentage and IC50 of the compound were calculated compared to the DMSO control group.

For assay [3], the system named is PC3 cells. Kind of assay: PC3 cell proliferation, 2D activity assay (Cell Titer-Lumi, 72 h). The class given is cell-based, human. Conditions: Homo sapiens, PC-3, read-out: 2D inhibitory activity against PC3 cells IC50. How it is done:
as §1

Sequence of FAK recombinant protein (Q05397 whole entry): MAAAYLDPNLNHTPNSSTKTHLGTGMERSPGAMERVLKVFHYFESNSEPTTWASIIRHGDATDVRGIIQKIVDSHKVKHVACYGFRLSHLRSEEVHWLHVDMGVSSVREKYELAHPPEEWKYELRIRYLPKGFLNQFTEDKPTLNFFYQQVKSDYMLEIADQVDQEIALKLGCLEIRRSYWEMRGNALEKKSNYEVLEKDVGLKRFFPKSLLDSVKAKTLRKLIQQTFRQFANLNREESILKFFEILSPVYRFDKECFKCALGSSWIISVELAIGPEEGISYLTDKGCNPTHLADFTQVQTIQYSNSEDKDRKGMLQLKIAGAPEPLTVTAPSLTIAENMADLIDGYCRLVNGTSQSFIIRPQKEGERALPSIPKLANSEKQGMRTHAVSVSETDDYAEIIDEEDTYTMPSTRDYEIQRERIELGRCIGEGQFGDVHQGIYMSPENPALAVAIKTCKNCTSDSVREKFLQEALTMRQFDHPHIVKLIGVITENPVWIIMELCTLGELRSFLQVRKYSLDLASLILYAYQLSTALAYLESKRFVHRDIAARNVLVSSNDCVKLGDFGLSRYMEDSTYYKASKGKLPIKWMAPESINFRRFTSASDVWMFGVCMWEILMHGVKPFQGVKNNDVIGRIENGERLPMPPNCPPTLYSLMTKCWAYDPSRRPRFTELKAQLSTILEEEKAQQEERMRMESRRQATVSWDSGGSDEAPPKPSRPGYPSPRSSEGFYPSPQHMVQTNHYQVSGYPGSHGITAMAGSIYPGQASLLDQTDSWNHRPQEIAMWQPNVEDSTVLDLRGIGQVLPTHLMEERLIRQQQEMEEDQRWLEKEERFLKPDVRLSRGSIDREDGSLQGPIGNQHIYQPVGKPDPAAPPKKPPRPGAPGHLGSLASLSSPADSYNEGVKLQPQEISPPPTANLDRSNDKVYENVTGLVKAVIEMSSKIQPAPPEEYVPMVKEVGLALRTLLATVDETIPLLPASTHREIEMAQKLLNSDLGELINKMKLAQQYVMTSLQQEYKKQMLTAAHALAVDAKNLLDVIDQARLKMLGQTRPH

A word on the IC50: it is the concentration needed to halve the response being measured. In the case of `COc1cc(C2CCN(C)CC2)ccc1Nc1ncc(C#N)c(Oc2cccc3c2C(=O)N(C)C32CC2)n1` [Compound 198], the IC50 is under 20 nM in assay [1], 5 to 50 nM in assay [2] and over 2000 nM in assay [3].

In the case of `CN1CCC(N2C(=O)Cc3cc(Nc4ncc(C(F)(F)F)c(Oc5cccc6c5C(=O)N(C)C65CC5)n4)ccc32)CC1` [Compound 72], the results for the IC50 in assay [1], in assay [2] and in assay [3] were under 20 nM, under 5 nM and over 2000 nM, respectively.

`COc1cc(N2CC3CC(C2)N3C)ccc1Nc1ncc(Cl)c(Oc2cccc3c2C(=O)N(C)C32CC2)n1` [Compound 165]: the results for the concentration for half-maximal inhibition (IC50) in assay [1], in assay [2] and in assay [3] were under 20 nM, 5 to 50 nM and over 2000 nM, respectively.

Take `COc1cc(C(=O)NC2CCN(C)CC2)c(F)cc1Nc1ncc(C#N)c(Oc2cccc3c2C(=O)N(C)C32CC2)n1` [Compound 193]: the IC50 was under 20 nM in assay [1], under 5 nM in assay [2] and over 2000 nM in assay [3].

In the case of `COc1cc(C(=O)NC2CCC3(CC2)CN(C)C3)c(F)cc1Nc1ncc(C(F)(F)F)c(Oc2cccc3c2C(=O)N(C)C32CC2)n1` [Compound 10], the values for the IC50 in assay [1], in assay [2] and in assay [3] were under 20 nM, 5 to 50 nM and over 2000 nM, respectively.

On to `COc1cc(C(=O)NC2CCN(C)CC2OC)ccc1Nc1ncc(C(F)(F)F)c(Oc2cccc3c2C(=O)N(C)C32CC2)n1` (stereo not drawn) [Compound 34], for which the IC50 was under 20 nM in assay [1], under 5 nM in assay [2] and over 2000 nM in assay [3].

`COc1cc(C2CCN(C)CC2)c(F)cc1Nc1ncc(C#N)c(Oc2cccc3c2C(=O)N(C)C32CC2)n1` [Compound 199]: the results for the IC50 in assay [1], in assay [2] and in assay [3] were under 20 nM, 5 to 50 nM and over 2000 nM, respectively.

Consider `COc1cc(C(=O)NC2CCN(C)CC2)c(F)cc1Nc1ncc(C(F)(F)F)c(Cc2cccc3c2C(=O)N(C)C32CC2)n1` [Compound 100, 2-fluoro-5-methoxy-4-((4-((2′-methyl-3′-oxospiro[cyclopropane-1,1′-isoindolin]-4′-yl)methyl)-5-(trifluoromethyl)pyrimidin-2-yl)amino)-N-(1-methylpiperidin-4-yl)benzamide], for which the IC50 in assay [1] is under 20 nM; in assay [2] it was 5 to 50 nM; in assay [3], over 2000 nM.

For the compound `COc1cc(N2CCC(N3CCN(C)CC3)CC2)c(F)cc1Nc1ncc(Cl)c(Oc2cccc3c2C(=O)N(C)C32CC2)n1` [Compound 138], the IC50 in assay [1] is under 20 nM; in assay [2], under 5 nM; in assay [3], over 2000 nM.

Regarding `COc1cc(C(=O)NC2(C)CCN(C)CC2)c(F)cc1Nc1ncc(C(F)(F)F)c(Oc2cccc3c2C(=O)N(C)C32CC2)n1` [Compound 7], the IC50 is under 20 nM in assay [1], under 5 nM in assay [2] and over 2000 nM in assay [3].

With `COc1cc(C(=O)NC2CCN(C)CC2)c(F)cc1Nc1ncc(Cl)c(Oc2cccc3c2C(=O)N(C)C32CCC2)n1` [Compound 205], the results for the IC50 in assay [1], in assay [2] and in assay [3] were under 20 nM, under 5 nM and over 2000 nM, respectively.

On to `COc1cc(C(=O)NC2CCC3(CC2)CCN(C)CC3)ccc1Nc1ncc(C(F)(F)F)c(Cc2cccc3c2C(=O)N(C)C32CC2)n1` [Compound 107], for which the IC50 in assay [1] was under 20 nM; in assay [2], over 50 nM; in assay [3] it was over 2000 nM.

With `COc1cc(C(=O)NC2CCC3(CC2)CCN3C)c(F)cc1Nc1ncc(C(F)(F)F)c(Oc2cccc3c2C(=O)N(C)C32CC2)n1` (stereo not drawn) [Compound 14], the IC50 in assay [1] was under 20 nM; in assay [2], under 5 nM; in assay [3], over 2000 nM.

With `COc1cc(N2CCC3(CC2)CN(C)C3)ccc1Nc1ncc(C#N)c(Oc2cccc3c2C(=O)N(C)C32CC2)n1` [Compound 202], the results for the IC50 in assay [1], in assay [2] and in assay [3] were under 20 nM, under 5 nM and over 2000 nM, respectively.

As to `COc1cc(C(=O)NC2COC3(CCN(C)CC3)C2)c(F)cc1Nc1ncc(C(F)(F)F)c(Oc2cccc3c2C(=O)N(C)C32CC2)n1` (stereo not drawn) [Compound 16], the half-inhibitory concentration (IC50) is under 20 nM in assay [1], under 5 nM in assay [2] and over 2000 nM in assay [3].

Turning to `COc1cc(C(=O)NC2CCn3cnnc3C2)ccc1Nc1ncc(C(F)(F)F)c(Oc2cccc3c2C(=O)N(C)C32CC2)n1` (stereo not drawn) [Compound 32], the IC50 is under 20 nM in assay [1], 5 to 50 nM in assay [2] and over 2000 nM in assay [3].

Turning to `COc1cc(N2CCC3C(CCN3C)C2)ccc1Nc1ncc(Cl)c(Oc2cccc3c2C(=O)N(C)C32CC2)n1` (stereo not drawn) [Compound 167], the results for the IC50 in assay [1], in assay [2] and in assay [3] were under 20 nM, 5 to 50 nM and over 2000 nM, respectively.

Consider `COc1cc(N2CCC(N3CC4CC(C3)N4C)CC2)ccc1Nc1ncc(Cl)c(Oc2cccc3c2C(=O)N(C)C32CC2)n1` [Compound 163], for which the IC50 in assay [1] was under 20 nM; in assay [2] it was 5 to 50 nM; in assay [3] it was over 2000 nM.

Consider `COc1cc(C(=O)N2CCC3(CCN(C)C3)C2)ccc1Nc1ncc(C(F)(F)F)c(Oc2cccc3c2C(=O)N(C)C32CC2)n1` (stereo not drawn) [Compound 57], for which the results for the IC50 in assay [1], in assay [2] and in assay [3] were under 20 nM, 5 to 50 nM and over 2000 nM, respectively.

Turning to `[2H]C([2H])([2H])N1CCC2(CC1)CC(NC(=O)c1ccc(Nc3ncc(C(F)(F)F)c(Oc4cccc5c4C(=O)N(C)C54CC4)n3)c(OC)c1)C2` [Compound 45], the IC50 in assay [1] is under 20 nM; in assay [2], under 5 nM; in assay [3] it was over 2000 nM.

Consider `[2H]C([2H])([2H])N1CCC2(CC1)CC(NC(=O)c1cc(OC)c(Nc3ncc(C(F)(F)F)c(Oc4cccc5c4C(=O)N(C)C54CC4)n3)cc1F)C2` [Compound 47], for which the concentration for half-maximal inhibition (IC50) was under 20 nM in assay [1], under 5 nM in assay [2] and over 2000 nM in assay [3].

Take `[2H]C([2H])([2H])N1CCC(C)(NC(=O)c2cc(OC)c(Nc3ncc(C(F)(F)F)c(Oc4cccc5c4C(=O)N(C)C54CC4)n3)cc2F)CC1` [Compound 43]: the IC50 in assay [1] was under 20 nM; in assay [2] it was under 5 nM; in assay [3], over 2000 nM.

For `COc1cc(C(=O)NC2CCC3(CC2)CCN(C)C3)ccc1Nc1ncc(C(F)(F)F)c(Oc2cccc3c2C(=O)N(C)C32CC2)n1` (stereo not drawn) [Compound 21], the half-maximal inhibitory concentration (IC50) is under 20 nM in assay [1], under 5 nM in assay [2] and over 2000 nM in assay [3].

As for `COc1cc(C(=O)NC2CC3(CCN(C)CC3)C2)c(F)cc1Nc1ncc(Cl)c(Oc2cccc3c2C(=O)N(C)C32CC2)n1` [Compound 132, 4-((5-chloro-4-((2′-methyl-3′-oxospiro[cyclopropane-1,1′-isoindolin]-4′-yl)oxy)pyrimidin-2-yl)amino)-2-fluoro-5-methoxy-N-(7-methyl-7-azaspiro[3.5]nonan-2-yl)benzamide], the half-inhibitory concentration (IC50) in assay [1] is under 20 nM; in assay [2], 5 to 50 nM; in assay [3], over 2000 nM.

Consider `COc1cc(N2CCC(N3CCN(C)CC3)CC2)ccc1Nc1ncc(Br)c(Oc2cccc3c2C(=O)N(C)C32CC2)n1` [Compound 182], for which the IC50 in assay [1] was under 20 nM; in assay [2], under 5 nM; in assay [3], over 2000 nM.

For `CNC(=O)c1ccc(Nc2ncc(C(F)(F)F)c(Oc3cccc4c3C(=O)N(C)C43CC3)n2)c(OC)c1` [Compound 2], the IC50 in assay [1] is under 20 nM; in assay [2], 5 to 50 nM; in assay [3], over 2000 nM.

With `COc1cc(N2CCN(C)CC2)c(F)cc1Nc1ncc(Cl)c(Oc2cccc3c2C(=O)N(C)C32CC2)n1` [Compound 140], the IC50 in assay [1] was under 20 nM; in assay [2] it was 5 to 50 nM; in assay [3] it was over 2000 nM.

Consider `COc1cc(N2CCC3(CCN(C)C3)C2)c(F)cc1Nc1ncc(C(F)(F)F)c(Oc2cccc3c2C(=O)N(C)C32CC2)n1` (stereo not drawn) [Compound 127], for which the values for the IC50 in assay [1], in assay [2] and in assay [3] were under 20 nM, under 5 nM and over 2000 nM, respectively.

On to `COc1cc(C(=O)NC2CCN3CCOC3C2)ccc1Nc1ncc(C(F)(F)F)c(Oc2cccc3c2C(=O)N(C)C32CC2)n1` (stereo not drawn) [Compound 29], for which the results for the IC50 in assay [1], in assay [2] and in assay [3] were under 20 nM, under 5 nM and over 2000 nM, respectively.

Regarding `COc1cc(N2CC(N3CCN(C)CC3)C2)ccc1Nc1ncc(Cl)c(Oc2cccc3c2C(=O)N(C)C32CC2)n1` [Compound 157, 4′-((5-chloro-2-((2-methoxy-4-(3-(4-methylpiperazin-1-yl)azetidin-1-yl)phenyl)amino)pyrimidin-4-yl)oxy)-2′-methylspiro[cyclopropane-1,1′-isoindolin]-3′-one], the IC50 in assay [1] is under 20 nM; in assay [2], under 5 nM; in assay [3], over 2000 nM.

For the compound `COc1cc(C(=O)NC2CCn3ccnc3C2)ccc1Nc1ncc(C(F)(F)F)c(Oc2cccc3c2C(=O)N(C)C32CC2)n1` (stereo not drawn) [Compound 31], the IC50 was under 20 nM in assay [1], 5 to 50 nM in assay [2] and over 2000 nM in assay [3].

As to `[2H]C([2H])([2H])N1CCC(C)(NC(=O)c2ccc(Nc3ncc(C(F)(F)F)c(Oc4cccc5c4C(=O)N(C)C54CC4)n3)c(OC)c2)CC1` [Compound 42], the IC50 in assay [1] was under 20 nM; in assay [2] it was under 5 nM; in assay [3], over 2000 nM.

In the case of `COc1cc(N2CC3(CN(C)C3)C2)c(F)cc1Nc1ncc(C(F)(F)F)c(Oc2cccc3c2C(=O)N(C)C32CC2)n1` [Compound 125], the figures for the IC50 in assay [1], in assay [2] and in assay [3] were under 20 nM, under 5 nM and over 2000 nM, respectively.

On to `COc1cc(C(=O)NC2CC3(CCN(C)CC3)C2)ccc1Nc1ncc(C#N)c(Oc2cccc3c2C(=O)N(C)C32CC2)n1` [Compound 195], for which the half-inhibitory concentration (IC50) in assay [1] was under 20 nM; in assay [2], under 5 nM; in assay [3], over 2000 nM.
